What was measured:
[1] = test system: human stomach cancer cells (MKN-45); experiment: Experiment 2: pharmacokinetics of Cupid-scFv antibody (24 h before)+^211At-psyche-B in MKN-45 cancer-bearing mouse models; type: in vivo, mice (BALB/cSlc nu/nu)
Description: The present experiment used highly CEA-expressing human stomach cancer cells (MKN-45). 9-week-old male immunodeficient mice (BALB/cSlc nu/nu) were used. MKN-45 cells (1×10^7/0.1 ml) were transplanted into the mice's subcutis on the right shoulder dorsal side to produce MKN-45 cancer-bearing mouse models. The mice were divided into four groups when the tumor volume became a predetermined size (on Day 13 after the transplantation). A Cupid-scFv antibody was administered in 100 μmol/0.1 ml via the caudal vein of each mouse. Twenty-four hours after administration of the Cupid-scFv antibody, ^211At-psyche-B (about 0.25 MBq/100 ml) was administered via the caudal vein of the mice. One minute, 1 hour, 6 hours, and 24 hours after administration of the ^211At-psyche-B, the mice were euthanized by collecting whole blood from the heart of each mouse under isoflurane anesthesia, and tumor tissues and normal tissues/organs were then excised. Normal tissues/organs: skin (lower right limb), muscle (right gastrocnemius muscle), heart, lung, spleen, pancreas, white fat (upper portion of right side testis), testis (right side), stomach (without contents), small intestine, large intestine, liver, brown fat, submandibular gland, thyroid gland (together with trachea), bone (right femur), cerebrum, eyeballs (both sides), bladder, and urine; the remaining residues were divided into three equal parts, and the three equal parts were defined to be residue-1, residue-2, and residue-3. After that, the weights of blood, plasma, urine, tumor, and normal tissues/organs were measured, and the radioactivity thereof was then measured using a γ counter. The amounts of the ^211At-psyche-B (radioactivity) accumulated in the blood, plasma, urine, tumor, and normal tissues/organs were calculated. That is to say, the rates (% ID/g) of the ^211At-psyche-B accumulated per unit weight (g) of the blood, plasma, urine, tumor, and normal tissues/organs, in the administered ^211At-psyche-B, were shown. Regarding accumulation of the ^211At-psyche-B in the thyroid gland, since the weight of the thyroid gland could not be precisely measured, it was shown that the rate (% ID) of the ^211At-psyche-B accumulated in the thyroid gland in the administered ^211At-psyche-B.

[2] = test system: human stomach cancer cells (MKN-45); experiment: Experiment 3: pharmacokinetics of Cupid-scFv antibody (48 h before)+^211At-psyche-B in MKN-45 cancer-bearing mouse models; type: in vivo, mice (BALB/cSlc nu/nu)
Description: The present experiment highly used CEA-expressing human stomach cancer cells (MKN-45). 9-week-old male immunodeficient mice (BALB/cSlc nu/nu) were used. MKN-45 cells (1×10^7/0.1 ml) were transplanted into the mice's subcutis on the right shoulder dorsal side to produce cancer-bearing mouse models. The mice were divided into four groups when the tumor volume became a predetermined size (on Day 12 after the transplantation). A Cupid-scFv antibody was administered in 100 μmol/0.1 ml via the caudal vein of each mouse. Forty-eight hours after administration of the Cupid-scFv antibody, ^211At-psyche-B (about 0.25 MBq/100 ml) was administered via the caudal vein of the mice. One minute, 1 hour, 6 hours, and 24 hours after administration of the ^211At-psyche-B, the mice were euthanized by collecting whole blood from the heart of each mouse under isoflurane anesthesia, and tumor tissues and normal tissues/organs were then excised. Normal tissues/organs: skin (lower right limb), muscle (right gastrocnemius muscle), heart, lung, spleen, pancreas, white fat (upper portion of right side testis), testis (both sides), stomach, stomach contents, small intestine (including contents), large intestine (including contents), liver, brown fat (interscapular), submandibular gland, thyroid gland (together with trachea), bone (right femur), cerebrum, eyeballs (both sides), bladder, and urine; the remaining residues were divided into three equal parts, and the three equal parts were defined to be residue-1, residue-2, and residue-3. After that, the weights of blood, plasma, urine, tumor, and normal tissues/organs were measured, and the radioactivity thereof was then measured using a γ counter. The amounts of the ^211At-psyche-B (radioactivity) accumulated in the blood, plasma, urine, tumor, and normal tissues/organs were calculated. That is to say, the rates (% ID/g) of the ^211At-psyche-B accumulated per unit weight (g) of the blood, plasma, urine, tumor, and normal tissues/organs, in the administered ^211At-psyche-B, were shown. Regarding accumulation of the ^211At-psyche-B in the thyroid gland, since the weight of the thyroid gland could not be precisely measured, it was shown that the rate (% ID) of the ^211At-psyche-B accumulated in the thyroid gland in the administered ^211At-psyche-B.

N=C1N[C@H]2[C@H](CS[C@H]2CCCCC(=O)NCCCCCC(=O)Nc2cc(NC(=O)CCCCCNC(=O)CCCC[C@@H]3SC[C@@H]4NC(=N)N[C@@H]43)cc(C(=O)NCCOCCOCCNC(=O)c3cccc([211At])c3)c2)N1 [^211At-psyche-B]
Accumulation in the kidney ([1]; after 1 minute): 29.3±1.5 % ID/g | Accumulation in the liver ([1]; after 1 minute): 17.4±2.3 % ID/g | Accumulation in the lung ([1]; after 1 minute): 15.9±1.7 % ID/g | Accumulation in the spleen ([1]; after 1 minute): 4.9±1.7 % ID/g | Accumulation in the tumor ([1]; after 1 minute): 0.6±0.1 % ID/g | Clearance from the blood ([1]; after 1 minute): 46.4±1.4 % ID/g | tumor-to-blood ratio ([1]; after 1 minute): 0.01±0.00 | tumor-to-muscle ratio ([1]; after 1 minute): 1.5±0.3 | Accumulation in the kidney ([1]; after 1 hour): 14.2±1.3 % ID/g | Accumulation in the liver ([1]; after 1 hour): 13.6±1.4 % ID/g | Accumulation in the lung ([1]; after 1 hour): 14.7±3.6 % ID/g | Accumulation in the spleen ([1]; after 1 hour): 7.9±1.1 % ID/g | Accumulation in the tumor ([1]; after 1 hour): 3.2±0.4 % ID/g | Clearance from the blood ([1]; after 1 hour): 40.6±3.2 % ID/g | tumor-to-blood ratio ([1]; after 1 hour): 0.08±0.01 | tumor-to-muscle ratio ([1]; after 1 hour): 5.2±1.0 | Accumulation in the kidney ([1]; after 6 hours): 9.8±0.7 % ID/g | Accumulation in the liver ([1]; after 6 hours): 16.0±1.4 % ID/g | Accumulation in the lung ([1]; after 6 hours): 11.2±0.9 % ID/g | Accumulation in the spleen ([1]; after 6 hours): 10.1±0.3 % ID/g | Accumulation in the tumor ([1]; after 6 hours): 11.8±1.5 % ID/g | Clearance from the blood ([1]; after 6 hours): 29.4±0.9 % ID/g | tumor-to-blood ratio ([1]; after 6 hours): 0.40±0.05 | tumor-to-muscle ratio ([1]; after 6 hours): 14.0±0.9 | Accumulation in the thyroid gland ([1]; after 24 h): 0.16±0.06 % ID | Accumulation in the kidney ([1]; after 24 hours): 4.7±0.8% | Accumulation in the liver ([1]; after 24 hours): 15.5±0.1% | Accumulation in the lung ([1]; after 24 hours): 4.2±0.5% | Accumulation in the spleen ([1]; after 24 hours): 9.6±2.4% | Accumulation in the tumor ([1]; after 24 hours): 16.3±4.1% | Clearance from the blood ([1]; after 24 hours): 6.2±1.3 % ID/g | administered amount excreted (blood) ([1]; after 24 hours): 94% | tumor-to-blood ratio ([1]; after 24 hours): 2.63±0.10 | tumor-to-muscle ratio ([1]; after 24 hours): 26.5±4.6 | Accumulation in the kidney ([2]; after 1 minute): 62.3±9.8 % ID/g | Accumulation in the liver ([2]; after 1 minute): 41.4±6.2 % ID/g | Accumulation in the lung ([2]; after 1 minute): 10.2±1.6 % ID/g | Accumulation in the spleen ([2]; after 1 minute): 3.5±0.1 % ID/g | Accumulation in the tumor ([2]; after 1 minute): 0.5±0.1 % ID/g | Clearance from the blood ([2]; after 1 minute): 30.7±2.2 % ID/g | tumor-to-blood ratio ([2]; after 1 minute): 0.02±0.00 | tumor-to-muscle ratio ([2]; after 1 minute): 1.0±0.3 | Accumulation in the kidney ([2]; after 1 hour): 38.0±4.5 % ID/g | Accumulation in the liver ([2]; after 1 hour): 25.6±2.5 % ID/g | Accumulation in the lung ([2]; after 1 hour): 12.2±0.9 % ID/g | Accumulation in the spleen ([2]; after 1 hour): 8.5±0.6 % ID/g | Accumulation in the tumor ([2]; after 1 hour): 3.2±0.7 % ID/g | Clearance from the blood ([2]; after 1 hour): 30.8±5.5 % ID/g | tumor-to-blood ratio ([2]; after 1 hour): 0.11±0.02 | tumor-to-muscle ratio ([2]; after 1 hour): 4.7±0.4 | Accumulation in the kidney ([2]; after 6 hours): 14.9±0.8 % ID/g | Accumulation in the liver ([2]; after 6 hours): 23.6±2.3 % ID/g | Accumulation in the lung ([2]; after 6 hours): 8.5±0.9 % ID/g | Accumulation in the spleen ([2]; after 6 hours): 11.1±0.7 % ID/g | Accumulation in the tumor ([2]; after 6 hours): 9.9±2.9 % ID/g | Clearance from the blood ([2]; after 6 hours): 19.0±2.6 % ID/g | tumor-to-blood ratio ([2]; after 6 hours): 0.51±0.09 | tumor-to-muscle ratio ([2]; after 6 hours): 13.1±3.5 | Accumulation in the thyroid gland ([2]; after 24 h): 0.16±0.02 % ID | Accumulation in the kidney ([2]; after 24 hours): 6.6±0.2% | Accumulation in the liver ([2]; after 24 hours): 19.3±0.6% | Accumulation in the lung ([2]; after 24 hours): 3.5±0.2% | Accumulation in the spleen ([2]; after 24 hours): 10.2±1.6% | Accumulation in the tumor ([2]; after 24 hours): 11.3±3.3% | Clearance from the blood ([2]; after 24 hours): 2.6±0.5 % ID/g | tumor-to-blood ratio ([2]; after 24 hours): 4.38±0.85 | tumor-to-muscle ratio ([2]; after 24 hours): 23.2±7.2

— patent US20230241257A1, “BIOTIN-MODIFIED DIMER AND USE THEREOF” (THE UNIVERSITY OF TOKYO, priority 2020, published 2023)
